Measured values published in patent publication US5476782A, “DNA encoding a human 5-HT1E receptor and uses thereof” (Synaptic Pharmaceutical Corporation, priority 1995, dated 1995).
Read-outs that look alike come from different tables or passages of the source.

Columns and labels:
human 5-HT1E receptor [1] = target: T1, human 5-HT1E receptor (Homo sapiens, UniProt P28566); experiment: [3H]5-HT displacement binding, membranes of Ltk- cells transfected with cloned 5-HT1E receptor; design: The entire coding region of clone hp75d was cloned into the eukaryotic expression vector pcEXV-3; expressed in transfected cells; host or cells: Ltk- mouse fibroblast cells (line 5-HT1E-7, ATCC CRL 10913, plasmid pcEXV-hp75d); settings: for affinity (in words): displacement of [3H]5-HT specific binding; for decrease of affinity relative to serotonin: substitution or removal of the 5-hydroxy group
T1 sequence (P28566 whole entry): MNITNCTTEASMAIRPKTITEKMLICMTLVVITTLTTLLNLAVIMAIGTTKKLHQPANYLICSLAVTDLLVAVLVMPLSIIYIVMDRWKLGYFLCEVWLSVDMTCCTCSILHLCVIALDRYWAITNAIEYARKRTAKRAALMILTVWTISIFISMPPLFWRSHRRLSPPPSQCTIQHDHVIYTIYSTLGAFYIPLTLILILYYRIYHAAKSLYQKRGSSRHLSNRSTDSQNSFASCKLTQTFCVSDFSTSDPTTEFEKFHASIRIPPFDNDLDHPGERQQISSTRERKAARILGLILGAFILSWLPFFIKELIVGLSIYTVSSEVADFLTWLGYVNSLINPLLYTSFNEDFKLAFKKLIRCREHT
Protocol: Membranes were prepared from transfected Ltk^- cells which were grown to 100% confluency. The cells were washed twice with phosphate-buffered saline, scraped from the culture dishes into 5 ml of ice-cold phosphate-buffered saline, and centrifuged at 200×g for 5 min at 4° C. The pellet was resuspended in 2.5 ml of ice-cold Tris buffer (20 mM Tris -HCl, pH 7.4 at 23° C., 5 mM EDTA) and homogenized by a Wheaton tissue grinder. The lysate was subsequently centrifuged at 200×g for 5 min at 4° C. to pellet large fragments which were discarded. The supernatant was collected and centrifuged at 40,000× g for 20 min at 4° C. The pellet resulting from this centrifugation was washed once in ice-cold Tris buffer and finally resuspended in a final buffer containing 50 mM Tris-HCl and 0.5 mM EDTA, pH 7.4 at 23° C. Membrane preparations were kept on ice and utilized within two hours for the radioligand binding assays.
The binding profile of drugs in competition experiments was accomplished using 10-12 concentrations of compound. Incubation times were 30 min for both saturation and displacement studies based upon initial investigations which determined equilibrium binding conditions. […] Binding was initiated by the addition of 50 μl membrane homogenates (10-20 μg). The reaction was terminated by rapid filtration through presoaked (0.5% polyethyleneimine) filters using 48R Cell Brandel Harvester (Gaithersburg, Md.). Subsequently, filters were washed for 5 seconds with ice cold buffer (50 mM Tris HCL, pH 7.4 at 4° C.), dried and placed into vials containing 2.5 ml of Readi-Safe (Beckman, Fullerton, Calif.) and radioactivity was measured using a Beckman LS 5000TA liquid scintillation counter. […] Binding data was analyzed by computer-assisted nonlinear regression analysis (Accufit and Accucomp, Lundon Software, Chagrin Falls, Ohio). […] All experiments were performed in triplicate.

5-HT1E binding site = settings: native site, human cortical tissue; cited from earlier work
human 5-HT1E receptor [2] = target: T1, human 5-HT1E receptor; settings: forskolin-stimulated cAMP
Protocol: Transfected Y1 cells (expression level=688 fmol/mg of protein) were incubated in DMEM, 5 mM theophylline, 10 mM Hepes (4-[2-Hydroxyethyl]-1-piperazineethanesulfonic acid), 10 μM pargyline, for 20 minutes at 37° C., 5% CO2. […] Subsequently, the cells were incubated for an additional 10 minutes at 37° C., 5% CO2. The media was aspirated and the reaction terminated by the addition of 100 mM HCl. The plates were stored at 4° C. for 15 minutes and centrifuged for 5 minutes (500×g at 4° C.) to pellet cellular debris. Aliquots of the supernatant fraction were then stored at -20° C. prior to assessment of cAMP formation by radioimmunoassay (cAMP Radioimmunoassay kit, Advanced Magnetics, Cambridge, Mass.).

human 5-HT1E receptor [3] = experiment: Inhibition of [3H]5-HT specific binding by Gpp(NH)p (G-protein coupling); settings: inhibition of specific binding of [3H]5-HT
[4] = displacement of 4.5-5.5 nM [3H]5-HT, 37° C., 30 min, Table 1, read-out: Ki

SMILES	Ki (human 5-HT1E receptor [1]; [4])	affinity (in words) (human 5-HT1E receptor [1])	also measured
c1ccc2c(N3CCNCC3)cccc2c1 [1-Napthylpiperazine]	207 ± 69 nM	–	Ki (human 5-HT1E receptor [1]; read-out: Ki values): 207 nM
Cc1[nH]c2ccc(O)cc2c1CCN [2-Methyl-5-HT]	817 ± 203 nM	–	–
NCCc1c[nH]c2ccc(C(N)=O)cc12 [5-CT, 5-carboxyamidotryptamine]	7880 ± 284 nM	low affinity	affinity (in words) (5-HT1E binding site): low affinity; decrease of affinity relative to serotonin (human 5-HT1E receptor [1]): 300 fold
NCCc1c[nH]c2ccc(O)cc12 [5-HT, 5-hydroxytryptamine]	–	highest affinity	maximum inhibition of cAMP production (human 5-HT1E receptor [2]): 32%
COc1ccc2[nH]cc(CCN)c2c1 [5-Methoxytryptamine]	3150 ± 1040 nM	–	decrease of affinity relative to serotonin (human 5-HT1E receptor [1]): 300 fold
CCCN(CCC)C1CCc2cccc(O)c2C1 (centres unmarked) [8-OH-DPAT]	3330 ± 310 nM	very poor affinity	–
COc1cc(CC(C)N)c(OC)cc1I (centres unmarked) [DOI]	2970 ± 592 nM	very poor affinity	–
CCCN(CCC)CCc1c[nH]c2ccc(C(N)=O)cc12 [DP-5-CT]	–	–	Ki (human 5-HT1E receptor [1]): > 10000 nM
C[C@@H](CO)NC(=O)[C@@H]1C=C2c3cccc4[nH]cc(c34)C[C@H]2N(C)C1 [Ergonovine]	–	–	Ki (human 5-HT1E receptor [1]): 87.7 ± 7.6 nM
CN1C[C@H](C(=O)N[C@]2(C)O[C@@]3(O)[C@@H]4CCCN4C(=O)[C@H](Cc4ccccc4)N3C2=O)C=C2c3cccc4[nH]cc(c34)C[C@H]21 [Ergotamine]	599 ± 39 nM	–	affinity (in words) (5-HT1E binding site): low affinity
Nc1nc2c(ncn2[C@@H]2O[C@H](COP(=O)(O)OP(=O)(O)NP(=O)(O)O)[C@@H](O)[C@H]2O)c(=O)[nH]1 [Gpp(NH)p]	–	–	IC50 (human 5-HT1E receptor [3]): 1880 ± 556 nM; Imax (human 5-HT1E receptor [3]): 26.4±5.6%
O=C(c1ccc(F)cc1)C1CCN(CCn2c(=O)[nH]c3ccccc3c2=O)CC1 [Ketanserin]	–	very poor affinity	–
Nc1ccc(CCN2CCN(c3cccc(C(F)(F)F)c3)CC2)cc1 [LY-165163 (PAPP)]	–	–	Ki (human 5-HT1E receptor [1]): > 10000 nM
CN1C[C@H](CO)C=C2c3cccc4[nH]cc(c34)C[C@H]21 [Lysergol]	42.8 ± 5.3 nM	–	–
CSc1ccc2c(c1)C(N1CCN(C)CC1)Cc1ccccc1S2 (centres unmarked) [Methiothepin]	194 ± 4 nM	–	Ki (human 5-HT1E receptor [1]; read-out: Ki values): 194 nM
CC[C@@H](CO)NC(=O)[C@@H]1C=C2c3cccc4[nH]cc(c34)C[C@H]2N(C)C1 [Methylergonovine]	89.4 ± 4.2 nM	–	–
CC[C@@H](CO)NC(=O)[C@@H]1C=C2c3cccc4c3c(cn4C)C[C@H]2N(C)C1 [Methysergide]	228 ± 16 nM	–	–
Cc1cc(C(C)(C)C)c(O)c(C)c1CC1=NCCN1 [Oxymetazoline]	419 ± 49 nM	–	–
CC(C)NCC(O)COc1cccc2[nH]ccc12 (centres unmarked) [Pindolol]	–	very poor affinity	–
COC(=O)[C@H]1[C@H]2C[C@H]3c4[nH]c5ccccc5c4CCN3C[C@H]2CC[C@@H]1O [Rauwolscine]	–	–	Ki (human 5-HT1E receptor [1]): 3430 ± 102 nM
O=C(CCCN1CCC2(CC1)C(=O)NCN2c1ccccc1)c1ccc(F)cc1 [Spiperone]	5050 ± 689 nM	very poor affinity	–
FC(F)(F)c1cccc(N2CCNCC2)c1 [TFMPP]	6290 ± 259 nM	–	–
NCCc1c[nH]c2ccccc12 [Tryptamine]	2560 ± 827 nM	–	decrease of affinity relative to serotonin (human 5-HT1E receptor [1]): 300 fold
COC(=O)[C@@H]1[C@H]2C[C@H]3c4[nH]c5ccccc5c4CCN3C[C@@H]2CC[C@@H]1O [Yohimbine]	1270 ± 233 nM	–	–
COc1cc(N)c(Cl)cc1C(=O)NC1CN2CCC1CC2 (centres unmarked) [Zacopride]	–	very poor affinity	–
